Experimental data as given in paper PMC2191575 (The Journal of Experimental Medicine, 1994).

Assays:
[1] = test system: chimeric human/mouse MHC class II molecules; format: binding
[2] = test system: chimeric MHC class II molecules on splenic B cells; format: cell-based, mouse; settings: overnight incubation of splenic B cells with recombinant IL-4; data not shown

Row | binding to chimeric MHC class II molecules [1] | Molecule | cell surface level of chimeric MHC class II molecules [2]
1 | Binding was not observed | OVA (323-339): a peptide that does not bind to DR4Dw4 (ISQAVHAAHAEINEAGR; UniProt P01012 324-340, looked up, fragment) | –
2 | Specific binding was also observed | myelin basic protein (90-102): DR-restricted synthetic peptide (HLIRLFSRDAPGR; UniProt P02686 90-102, looked up, fragment) | –
3 | – | recombinant IL-4: recombinant IL-4 (protein, UniProt P07750 21-140, looked up) Interleukin-4: HIHGCDKNHLREIIGILNEVTGEGTPCTEMDVPNVLTATKNTTESELVCRASKVLRIFYLKHGKTPCLKKNSSVLMELQRLFRAFRCLDSSISCTMNESKSTSLKDFLESLKSIMQMDYS | increased by three- to fourfold
